In series [1] the test system is E. faecalis (ATCC® 29212™). In words: MIC, 96-well microplate microdilution (Example 4). The class given is cell-based. The note with it: 18 h at 37° C.; for MIC: Enterococcus faecalis, ATCC29212, Mueller-Hinton medium, read-out: Minimum inhibitory concentration (MIC) E. faecalis. The method, then: (§1) The bacteriostatic properties of the derivatives are evaluated by measuring their minimum inhibitory concentration (MIC) on the bacteria tested. Such a measurement is made using the 96-well microplate microdilution method according to the conditions defined below.
(§2) The minimum inhibitory concentrations (MIC) are tested on Gram-positive bacterial strains according to the recommendations of the “Clinical Laboratory Standards Institute” (Clinical-Laboratory-Standards-Institute, 6th ed. Approved standard M100-S17. CLSI, Wayne, Pa., 2007).
(§3) The Gram-positive bacteria studied are as follows: L. monocytogenes (CIP 103575), E. faecalis (ATCC® 29212™) and S. aureus (ATCC® 292213™).
(§4) The cultures studied, freshly isolated (after incubation on a blood agar at 37° C. for 18 h), are taken up in sterile water (10 mL) until a 0.5 McFarland (Mc) suspension i.e. 1 to 2×10^8 CFU (bacteria)/cm^3 is obtained. The bacterial suspension was then diluted to obtain a final concentration of 5×10^5 CFU/cm^3.
(§5) Each well contains an identical quantity of Mueller-Hinton medium (a rich medium for bacterial culture) and bacteria with final 5×10^5 CFU/cm^3.
(§6) The test compounds of interest are solubilized in 2.5% m of ethanol before being diluted to different concentrations two by two.
(§7) On the multiwell plate, a first series has been planned comprising the culture medium without the test compound of interest. It corresponds to the growth control (control well). These controls serve as reference for comparing bacterial growth with that of the subsequent wells comprising different concentrations of the test compound of interest. The second series of wells comprises the mother solution for the test compound of interest for a concentration in the wells of 4 mM. Each series of wells was diluted two by two until the last series for a final concentration of 0.003 mM. Each concentration is duplicated in the same plate. The plate is incubated for 18 h at 37° C. […] If there is antibacterial activity, the bacterial growth is inhibited, which means that no turbidity or bacterial residue is present.
(§8) Tests have been conducted on Gram-positive bacteria with sorbitan derivatives. […] After sterilization the solutions are diluted in water. The results obtained for antimicrobial tests on the 3 bacterial strains L. monocytogenes (CIP 103575), E. faecalis (ATCC® 29212™) and S. aureus (ATCC® 292213™) are summarized in Table 1.
Background: In broth dilution the organism is exposed to a series of concentrations in liquid medium.

In series [2] the test system is L. monocytogenes (CIP 103575). Briefly: MIC, 96-well microplate microdilution (Example 4). Type of series: cell-based. The note with it: 18 h at 37° C.; for MIC: Listeria monocytogenes, CIP103575, Mueller-Hinton medium, read-out: Minimum inhibitory concentration (MIC) L. monocytogenes; for Minimum inhibitory concentration (MIC) L. monocytogenes: Mueller-Hinton medium. The method, then: as §1, §2, §3, §4, §5, §6, §7, §8

The test system of series [3] is S. aureus (ATCC® 292213™). In words: MIC, 96-well microplate microdilution (Example 4). The note with it: for MIC: Staphylococcus aureus, ATCC292213, read-out: Minimum inhibitory concentration (MIC) S. aureus; for MIC / Minimum inhibitory concentration (MIC) S. aureus: ATCC 292213, Mueller-Hinton medium, 18 h at 37° C. The class given is cell-based. On the procedure: as §1, §2, §3, §4, §5, §6, §7, §8

Series [4] has as its system E. faecalis (ATCC® 29212™). In words: MBC, bacterial count from clear wells reseeded on agar (Example 5). The class given is cell-based. On the procedure:
(§9) To determine whether the agents tested are bactericidal, the minimum bactericidal concentration (MBC) is determined. The MBC corresponds to the concentration leaving a number of bacterial survivors of <4 log. For this, a bacterial count is run from clear wells or without bacterial residue (C≤MIC). To do this, a dilution to 1/100 was conducted with the two wells with the same concentration before seeding on a blood agar using the Spiral technique. After 24 h of incubation at 37° C., the visual count allowed determination of the minimum concentration from which there is no bacterial growth.
(§10) To determine the bactericidal effect of compounds presenting bacteriostatic properties, the wells no longer presenting turbidity were reseeded on agar.

Series [5] deals with L. monocytogenes (CIP 103575). The description is as above. The class given is cell-based. On the procedure: as §9, §10
Series [6] in a line: Critical micelle concentration (surfactant properties, Example 6). The class given is physicochemical. The source says: The physical, chemical and antimicrobial properties for the best products synthesized have been tested. These analyses show the different surfactant profiles, and the minimum inhibitory concentrations (MIC) for each compound on Gram-positive bacteria. The best surfactant and antimicrobial results are compared in Table 3.

The subject of series [7] is L. monocytogenes (CIP 103575), E. faecalis (ATCC® 29212™) and S. aureus (ATCC® 292213™). Briefly: MIC microdilution, statements for all three Gram-positive strains together. Type of series: cell-based. On the procedure: as §1, §2, §3, §4, §5, §6
On the multiwell plate, a first series has been planned comprising the culture medium without the test compound of interest. […]

≈ marks a conversion by molar mass, not a printed value.

With `CCCCCCCCOCC(O)[C@H]1OCC(O)C1O` (stereo partly drawn) [Example 2c, Octyl-1,4-D-sorbitan], the MIC in series [1], in series [2] and in series [3] was greater than 4 mM in each case.

Turning to `CCCCCCOCC(O)[C@H]1OCC(O)C1O` (stereo partly drawn) [Example 2b, Hexyl-1,4-D-sorbitan], the MIC in series [1], in series [2] and in series [3] was greater than 4 mM throughout.

As for `CCCCCCCCCC1OCC([C@H]2OCC(O)C2O)O1` (stereo partly drawn) [Example 1d, 5,6-O-Decylidene-1,4-D-sorbitan 1d and 1d′ and 3,5-O-decylidene-1,4-D-sorbitan 1d′ and 1d′″], the MIC in series [1], in series [2] and in series [3] was greater than 4 mM throughout.

As for “5,6-O-Dodecylidene-1,4-D-sorbitan 1e and 1e′ and 3,5-O-dodecylidene-1,4-D-sorbitan 1e′ and 1e′″ [Example 1e]”, the “Minimum inhibitory concentration (MIC) E. faecalis” value in series [1] (Mueller-Hinton medium) worked out at 0.03 mM. Also, the “Minimum inhibitory concentration (MIC) L. monocytogenes” value in series [2] worked out at 0.03 mM. Moreover, in series [3], the “bacteriostatic concentration for S. aureus” value is recorded as 0.12 mM and the “Minimum inhibitory concentration (MIC) S. aureus” value came to 0.12 mM. In addition, the “bactericidal concentration for E. faecalis” value in series [4] is 0.03 mM. The “minimum bactericidal concentration (MBC) E. faecalis” value in series [4] (Table 2, reseeded on agar) turned out to be 0.03 mM. Besides, the “bactericidal concentration for L. monocytogenes” value in series [5] amounted to 0.03 mM. Moreover, the “minimum bactericidal concentration (MBC) L. monocytogenes” value in series [5] (Table 2, reseeded on agar) turned out to be 0.03 mM. In series [6], the “CMC (critical micelle concentration)” value was 0.034 mM.

For the molecule `CCCCCCCCCCOCC(O)[C@H]1OCC(O)C1O` (stereo partly drawn) [Example 2d, Decyl-1,4-d-sorbitan], the MIC in series [1], in series [2] and in series [3] was greater than 4 mM throughout.

Regarding `CCCCCOCC(O)[C@H]1OCC(O)C1O` (stereo partly drawn) [Example 2a, Pentyl-1,4-D-sorbitan], the MIC in series [1], in series [2] and in series [3] was greater than 4 mM throughout.

As to `CCCCCCCCCCCC(=O)OCC(O)CO` (stereo not drawn) [Monolaurin (ML), monolaurin, reference compound], the “Minimum inhibitory concentration (MIC) L. monocytogenes” value in series [2] turned out to be 0.04 mM (≈ 11 µg/mL). The “Minimum inhibitory concentration (MIC) S. aureus” value in series [3] came out at 0.04 mM (≈ 11 µg/mL).

Turning to `CCCCC1OCC([C@H]2OCC(O)C2O)O1` (stereo partly drawn) [Example 1a, 5,6-O-Pentylidene-1,4-D-sorbitan 1a and 1a′ and 3,5-O-pentylidene-1,4-D-sorbitan 1a″ and 1a′″], the MIC in series [1], in series [2] and in series [3] was greater than 4 mM in each case.

Turning to `CCCCCCCC1OCC([C@H]2OCC(O)C2O)O1` (stereo partly drawn) [Example 1c, 5,6-O-Octylidene-1,4-D-sorbitan 1c and 1c′ and 3,5-O-octylidene-1,4-D-sorbitan 1c″ and 1c′″], the MIC in series [1], in series [2] and in series [3] was greater than 4 mM each time.

In the case of `CCCCCC1OCC([C@H]2OCC(O)C2O)O1` (stereo partly drawn) [Example 1b, 5,6-O-Hexylidene-1,4-D-sorbitan 1b and 1b′ and 3,5-O-hexylidene-1,4-D-sorbitan 1b″ and 1b′″], the MIC in series [1], in series [2] and in series [3] was greater than 4 mM throughout.

For the molecule `CCCCCCCCCCCC=O` [dodecanal, reference compound], in series [7], the “MIC / inhibitory concentration on the bacterial strains studied” value is on record as greater than 4 mM.

The record behind these values is US10874103B2, “Antibacterial composition comprising an acetal or a long-chain alkyl hexitane ether” (TEREOS STARCH & SWEETENERS BELGIUM, priority 2014, dated 2020).
